Laboratory results reported in patent publication US7744867B2, “PTPase inhibitors and method of using same” (The Cleveland Clinic Foundation, priority 2001, dated 2010).

Test system: U266 cells
Experiment: Apoptotic cells by Annexin V/propidium iodide assay
Format: cell-based, human
Settings: sodium stibogluconate 100 μg/ml, IFNα 1000 u/ml, 3 days, control 8%
Description: Detection of apoptotic cells by Annexin V/propidium iodide assay. Annexin V staining of exposed membrane phospholipid phosphatidylserine (PS) was done using the Annexin V assay kit (Pharmingen, San Diego, Calif.). Briefly, U266 or WM9 cells were cultured in the 10% FCS RPMI 1640 medium in the absence or presence of sodium stibogluconate, IFNα, or both for 3 days. Cells were then washed in PBS twice and stained in binding buffer (10 mM Hepes, pH 7.4; 140 mM NaCl; 2.5 mM CaCl2) containing Annexin V-FITC and propidium iodide for 15 min. The reaction was stopped by adding 10 volumes of binding buffer and analyzed by FACS (Becton Dickinson Facsvantage) or fluorescent microscopy.

IFNα
percentage of apoptotic cells: 16%
